Measurements as given in ChEMBL document CHEMBL4024739, “Diversity-oriented sustainable synthesis of antimicrobial spiropyrrolidine/thiapyrrolizidine oxindole derivatives: New ligands for a metallo-β-lactamase from Klebsiella pneumonia” (2017).
Values after ≈ are worked out from the molar mass of the structure shown.

Key:
Assay type in all cases: functional
Pseudomonas aeruginosa = test: Antibacterial activity against Pseudomonas aeruginosa ATCC BAA-427 by spectrophotometric method
Sporothrix schenckii = test: Antifungal activity against Sporothrix schenckii by spectrophotometric method
Candida parapsilosis = test: Antifungal activity against Candida parapsilosis ATCC 22019 by spectrophotometric method; details: Lodderomyces parapsilosis
[1] = system: Trichophyton mentagrophytes; test: Antifungal activity against Trichophyton mentagrophytes by spectrophotometric method
Klebsiella pneumoniae [2] = test: Antibacterial activity against Klebsiella pneumoniae ATCC 27736 by spectrophotometric method
Escherichia coli = test: Antibacterial activity against Escherichia coli ATCC 9637 by spectrophotometric method; details: W
Aspergillus fumigatus = test: Antifungal activity against Aspergillus fumigatus by spectrophotometric method
Candida albicans = test: Antifungal activity against Candida albicans by spectrophotometric method
Cryptococcus neoformans = test: Antifungal activity against Cryptococcus neoformans by spectrophotometric method
Staphylococcus aureus = test: Antibacterial activity against Staphylococcus aureus ATCC 25923 by spectrophotometric method
Klebsiella pneumoniae [3] = test: Potency index, ratio of amphicillin MIC to compound MIC for Klebsiella pneumoniae ATCC 27736
Klebsiella pneumoniae [4] = test: Potency index, ratio of gentamicin MIC to compound MIC for Klebsiella pneumoniae ATCC 27736

| Compound | MIC (Pseudomonas aeruginosa) [µg/mL] | MIC (Sporothrix schenckii) [µg/mL] | MIC (Candida parapsilosis) [µg/mL] | MIC [1] [µg/mL] | MIC (Klebsiella pneumoniae [2]) [µg/mL] | MIC (Escherichia coli) [µg/mL] | MIC (Aspergillus fumigatus) [µg/mL] | MIC (Candida albicans) [µg/mL] | MIC (Cryptococcus neoformans) [µg/mL] | MIC (Staphylococcus aureus) [µg/mL] | Ratio (Klebsiella pneumoniae [3]) | Ratio (Klebsiella pneumoniae [4]) |
| --- | --- | --- | --- | --- | --- | --- | --- | --- | --- | --- | --- | --- |
| CCOC(=O)[C@]1(C#N)[C@@H](c2c(F)cccc2Cl)CN(C)[C@@]12C(=O)Nc1ccc([N+](=O)[O-])cc12 | > 50 | > 50 | 50 (≈ 106 µM) | > 50 | 50 (≈ 106 µM) | > 50 | > 50 | 50 (≈ 106 µM) | 50 (≈ 106 µM) | > 50 |  |  |
| CCOC(=O)[C@]1(C#N)[C@@H](c2ccc(Cl)c(Cl)c2)CN(C)[C@@]12C(=O)Nc1c(C)cc(C)cc12 | > 50 | > 50 | > 50 | 50 (≈ 106 µM) | 6.25 (≈ 13.2 µM) | > 50 | > 50 | > 50 | > 50 | > 50 |  |  |
| CCOC(=O)[C@]1(C#N)[C@@H](c2ccc(OC)cc2)CN(C)[C@@]12C(=O)Nc1c(C)cc(C)cc12 | > 50 | > 50 | > 50 | 50 (≈ 115 µM) | 25 (≈ 57.7 µM) | > 50 | > 50 | > 50 | > 50 | > 50 |  |  |
| N#CC1(C#N)[C@@H](c2cccc([N+](=O)[O-])c2)C2CSCN2[C@@]12C(=O)Nc1ccccc12 (some centres not stated) | > 50 | > 50 | > 50 | > 50 | 0.19 (≈ 0.455 µM) | > 50 | > 50 | > 50 | > 50 | > 50 |  |  |
| CC1(C)S[C@@H]2[C@H](NC(=O)[C@H](N)c3ccccc3)C(=O)N2[C@H]1C(=O)O [AMPICILLIN] | 50 (≈ 143 µM) |  |  |  | 0.39 (≈ 1.12 µM) | 50 (≈ 143 µM) |  |  |  | 0.19 (≈ 0.544 µM) |  |  |
| N#CC1(C#N)[C@@H](c2ccc(Cl)c(Cl)c2)C2CSCN2[C@@]12C(=O)Nc1ccccc12 (some centres not stated) | > 50 | > 50 | > 50 | 50 (≈ 113 µM) | 0.005 (≈ 0.0113 µM) | > 50 | > 50 | > 50 | > 50 | > 50 | 78 | 156 |
| CN1C[C@H](c2ccc(Cl)c(Cl)c2)C(C#N)(C#N)[C@]12C(=O)Nc1ccc(Cl)cc12 | > 50 | 50 (≈ 116 µM) | > 50 | > 50 | 6.25 (≈ 14.5 µM) | > 50 | > 50 | > 50 | > 50 | > 50 |  |  |
| CCOC(=O)[C@]1(C#N)[C@@H](c2c(F)cccc2Cl)CN(C)[C@@]12C(=O)Nc1c(C)cc(C)cc12 | > 50 | 25 (≈ 54.8 µM) | 50 (≈ 110 µM) | 12.5 (≈ 27.4 µM) | 3.12 (≈ 6.84 µM) | > 50 | 25 (≈ 54.8 µM) | 50 (≈ 110 µM) | 50 (≈ 110 µM) | 12.5 (≈ 27.4 µM) |  |  |
| CCOC(=O)[C@]1(C#N)[C@@H](c2ccc(Cl)c(Cl)c2)CN(C)[C@@]12C(=O)Nc1ccc(Cl)cc12 | > 50 | > 50 | > 50 | > 50 | 50 (≈ 104 µM) | > 50 | > 50 | > 50 | > 50 | > 50 |  |  |
| CCOC(=O)[C@]1(C#N)[C@@H](c2c(F)cccc2Cl)CN(C)[C@@]12C(=O)Nc1ccc(Cl)cc12 | > 50 | 50 (≈ 108 µM) | 50 (≈ 108 µM) | 50 (≈ 108 µM) | 25 (≈ 54.1 µM) | > 50 | 50 (≈ 108 µM) | 50 (≈ 108 µM) | 50 (≈ 108 µM) | > 50 |  |  |
| CCOC(=O)[C@]1(C#N)[C@@H](c2ccc(Cl)cc2)CN(C)[C@@]12C(=O)Nc1c(C)cc(C)cc12 | > 50 | 50 (≈ 114 µM) | 50 (≈ 114 µM) | 50 (≈ 114 µM) | 1.56 (≈ 3.56 µM) | > 50 | 50 (≈ 114 µM) | 50 (≈ 114 µM) | 50 (≈ 114 µM) | 50 (≈ 114 µM) |  |  |
| CCOC(=O)[C@]1(C#N)[C@@H](c2c(F)cccc2Cl)C2CSCN2[C@@]12C(=O)Nc1ccccc12 (some centres not stated) | > 50 | > 50 | > 50 | 50 (≈ 106 µM) | 0.045 (≈ 0.0954 µM) | > 50 | > 50 | > 50 | > 50 | > 50 |  |  |
| C[C@@H]1[C@H](O)[C@@H](C)/C=C/C=C/C=C/C=C/C=C/C=C/C=C/[C@H](O[C@@H]2O[C@H](C)[C@@H](O)[C@H](N)[C@@H]2O)C[C@@H]2O[C@](O)(C[C@@H](O)C[C@@H](O)[C@H](O)CC[C@@H](O)C[C@@H](O)CC(=O)O[C@H]1C)C[C@H](O)[C@H]2C(=O)O [AMPHOTERICIN B] |  | 0.12 (≈ 0.13 µM) | 0.12 (≈ 0.13 µM) | 0.12 (≈ 0.13 µM) |  |  | 0.5 (≈ 0.541 µM) | 0.06 (≈ 0.0649 µM) | 0.12 (≈ 0.13 µM) |  |  |  |
| OC(Cn1cncn1)(Cn1cncn1)c1ccc(F)cc1F [FLUCONAZOLE] |  | 2 (≈ 6.53 µM) | 1 (≈ 3.27 µM) | 1 (≈ 3.27 µM) |  |  | 2 (≈ 6.53 µM) | 1 (≈ 3.27 µM) | 0.5 (≈ 1.63 µM) |  |  |  |
| GENTAMICIN | 0.78 |  |  |  | 0.78 | 0.78 |  |  |  | 0.39 |  |  |
| CCOC(=O)[C@]1(C#N)[C@@H](c2cccs2)C2CSCN2[C@@]12C(=O)Nc1ccccc12 (some centres not stated) | > 50 | > 50 | > 50 | 50 (≈ 117 µM) | 0.09 (≈ 0.211 µM) | > 50 | > 50 | > 50 | > 50 | > 50 |  |  |
